Experimental data published in the NIST ThermoML archive (doi:10.1021/je300776s).
Numbers after ± are expanded uncertainties.

Conditions: for mass density: Vibrating tube method; for vapor or sublimation pressure: Closed cell (Static) method; for viscosity: Capillary tube (Ostwald / Ubbelohde) method; for surface tension liquid-gas: Capillary rise

FC(F)(F)/C=C/Cl [(E)-1-chloro-3,3,3-trifluoroprop-1-ene]
Conditions | Critical temperature [K] | mass density [kg/m3] | vapor or sublimation pressure [kPa]
243.34 K, Liquid | – | 1384.7 ± 2.8 | –
243.7 K, Liquid | – | 1383.98 ± 2.8 | –
248.07 K, Liquid | – | 1371.38 ± 2.8 | –
251.12 K, Liquid | – | 1367.4 ± 2.8 | –
253.56 K, Liquid | – | 1362.51 ± 2.8 | –
255.66 K, Liquid | – | 1360.3 ± 2.8 | –
263.09 K, Liquid | – | – | 29.85 ± 0.6
263.36 K, Liquid | – | 1341.34 ± 2.7 | –
271.16 K, Liquid | – | 1323.65 ± 2.7 | –
272.95 K, Liquid | – | – | 44.51 ± 0.9
273.1 K, Liquid | – | – | 47.57 ± 0.96
273.17 K, Liquid | – | 1319.65 ± 2.7 | –
282.95 K, Liquid | – | – | 71.41 ± 1.4
283.08 K, Liquid | – | – | 72.74 ± 1.5
283.26 K, Liquid | – | 1296.48 ± 2.6 | –
290.16 K, Liquid | – | 1280.22 ± 2.6 | –
291.98 K, Liquid | – | 1276.01 ± 2.6 | –
293.05 K, Liquid | – | – | 107.99 ± 2.2
293.08 K, Liquid | – | – | 106.52 ± 2.1
293.21 K, Liquid | – | 1273.37 ± 2.6 | –
302.85 K, Liquid | – | – | 148.21 ± 3
303.01 K, Liquid | – | – | 152.1 ± 3.1
312.25 K, Liquid | – | – | 203.33 ± 4.1
312.93 K, Liquid | – | – | 210.08 ± 4.2
321.85 K, Liquid | – | – | 279.37 ± 5.6
323 K, Liquid | – | – | 282.13 ± 5.7
332.93 K, Liquid | – | – | 382.66 ± 7.7
342.92 K, Liquid | – | – | 502.28 ± 10
352.84 K, Liquid | – | – | 641.35 ± 13
Liquid, Visual observation in an unstirred cell | 438.75 ± 0.17 | – | –

Liquid
Conditions | viscosity [mPa·s]
270.24 K, 100 kPa | 0.705 ± 0.018
292.03 K, 150 kPa | 0.506 ± 0.013
314.25 K, 300 kPa | 0.3851 ± 0.0098
336.37 K, 500 kPa | 0.294 ± 0.008
353.52 K, 800 kPa | 0.2369 ± 0.0061
379.56 K, 1350 kPa | 0.1763 ± 0.0046

Conditions | surface tension liquid-gas [mN/m]
273.15 K | 16.48 ± 0.34
298.15 K | 12.68 ± 0.27
323.15 K | 9.01 ± 0.19
